Reference: patent publication US20230157996A1, “SMALL-MOLECULE INHIBITOR TARGETING EB VIRUS NUCLEAR ANTIGEN PROTEIN, PREPARATION METHOD AND USE THEREOF” (priority 2020, published 2023)

These compounds were tested on C666-1 cells (assay: C666-1 cell viability single concentration (50 μM) inhibition rate (Resazurin)). Conditions: Homo sapiens, C6661, 72 h, 50 μM compound, 72 hours, C666-1 cells; read-out: C666-1 cell viability single concentration (50 μM) inhibition rate, Ratio* (Inh %).
Format: cell-based
Method in brief: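 Resazurin fluorescence (560/590 nm, 3 h development) gave the proliferation inhibition rate, normalised to DMSO-treated and cell-free blank wells. Compound was tested at a single 50 μmol/L final concentration on C666-1 cells for 72 h at 37° C, with duplicate wells, after 24 h seeding.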

First: COC(=O)c1cccc(N2CC(NC(=O)Nc3ccc(Oc4ccccc4)cc3)C2)c1-n1cccc1 [Example 165, Methyl 3-(3-(3-(4-phenoxyphenyl)ureido)azetidin-1-yl)-2-(H-pyrrol-1-yl)benzoate]
Second: COC(=O)c1cccc(N2CC(Oc3ccc(NC(=O)Nc4ccccc4Cl)cc3)C2)c1-n1cccc1 [Example 135, Methyl 3-(3-(4-(3-(2-chlorophenyl)ureido)phenoxy)azetidin-1-yl)-2-(1H-pyrrol-1-yl)benzoate]
The inhibition at 50 µM of the first is higher: 10 to 30% for the first, less than 10% for the second.

`Nc1ccccc1N1CC2(C1)CN(c1cccc(C(=O)O)c1N)C2` [Compound 12, 2-amino-3-(6-(2-aminophenyl)-2,6-diazaspiro[3.3]heptan-2-yl)benzoic acid] and `O=C(O)c1cccc(N2CC3(CN(c4ccccc4)C3)C2)c1-n1cccc1` [Compound 11, 3-(6-phenyl-2,6-diazaspiro[3.3]heptan-2-yl)-2-(1H-pyrrol-1-yl)benzoic acid] cannot be ordered by inhibition at 50 µM: less than 10% for the first, less than 10% for the second.

`O=C(O)c1cccc(C23CC(c4ccccc4)(C2)C3)c1-n1cccc1` [Compound 6, 3-(3-phenylbicyclo[1.1.1]pentan-1-yl)-2-(1H-pyrrol-1-yl)benzoic acid] and `COc1ccc(C23CC(c4cccc(C(=O)O)c4-n4cccc4)(C2)C3)cc1` [Compound 8, 3-(3-(4-methoxyphenyl)bicyclo[1.1.1]pentan-1-yl)-2-(1H-pyrrol-1-yl)benzoic acid] cannot be ordered by inhibition at 50 µM: less than 10% for the first, less than 10% for the second.

First: COCCOc1ccc(OC2CN(c3cccc(C(=O)O)c3-n3cccc3)C2)cc1OC [Example 219, 3-(3-(3-methoxy-4-(2-methoxyethoxy)phenoxy)azetidin-1-yl)-2-(1H-pyrrol-1-yl)benzoic acid]
Second: COCCOCc1ccc(OC2CN(c3cccc(C(=O)OC)c3-n3cccc3)C2)cc1OCCOC [Example 366, Methyl 3-(3-(3-(2-methoxyethoxy)-4-((2-methoxyethoxy)methyl)phenoxy)azetidin-1-yl)-2-(1H-pyrrol-1-yl)benzoate]
The inhibition at 50 µM of the first is lower: less than 10% for the first, 10 to 30% for the second.

Compared with `O=C(O)c1cccc(N2CC(Oc3ccc(Oc4ccc(Cl)cc4)cc3)C2)c1-n1cccc1` [Example 195, 3-(3-(4-(4-chlorophenoxy)phenoxy)azetidin-1-yl)-2-(1H-pyrrol-1-yl)benzoic acid], `O=C(O)c1cccc(N2CC(Oc3ccc(COc4cccc(F)c4)cc3)C2)c1-n1cccc1` [Example 248, 3-(3-(4-((3-fluorophenoxy)methyl)phenoxy)azetidin-1-yl)-2-(1H-pyrrol-1-yl)benzoic acid] is lower in inhibition at 50 µM: 10 to 30% for the first, less than 10% for the second.

`CC(=O)Nc1ccc(OC2CN(c3cccc(C(=O)O)c3-n3cccc3)C2)cc1` [Example 121, 3-(3-(4-acetylaminophenoxy)azetidin-1-yl)-2-(1H-pyrrol-1-yl)benzoic acid] and `COc1ccc(NC(=S)OC2CN(c3cccc(C(=O)O)c3-n3cccc3)C2)cc1` [Example 159, 3-(3-(((4-methoxyphenyl)thiocarbamoyl)oxy)azetidin-1-yl)-2-(1H-pyrrol-1-yl)benzoic acid] cannot be ordered by inhibition at 50 µM: less than 10% for the first, less than 10% for the second.

`COC(=O)c1cccc(N2CC(S(=O)(=O)c3ccc(Cl)cc3)C2)c1-n1cccc1` [Example 354, Methyl 3-(3-((4-chlorophenyl)sulfonyl)azetidin-1-yl)-2-(1H-pyrrol-1-yl)benzoate] and `COC(=O)c1cccc(N2CC(Oc3ccc(N)cc3)C2)c1-n1cccc1` [Example 253, Methyl 3-(3-(4-aminophenoxy)azetidin-1-yl)-2-(1H-pyrrol-1-yl)benzoate] fall in the same range of inhibition at 50 µM: 10 to 30% for the first, 10 to 30% for the second.

`COC(=O)c1cccc(N2CC(Oc3ccc(COCCNC(C)=O)cc3)C2)c1-n1cccc1` [Example 374] and `COC(=O)c1cccc(N2CC(Oc3ccc(COCCO)cc3)C2)c1-n1cccc1` [Example 372] fall in the same range of inhibition at 50 µM: 10 to 30% for the first, 10 to 30% for the second.

Compared with `COC(=O)c1cccc(N2CC(Oc3ccc(CO)cc3)C2)c1-c1cccc(C#N)c1` [Compound 55], `COC(=O)c1cccc(N2CC(Oc3ccc(CO)cc3)C2)c1-c1cccc(OC)c1` [Compound 66, Methyl 3′-methoxy-6-(3-(4-(hydroxymethyl)phenoxy)azetidin-1-yl)-[1,1′-biphenyl]-2-formate] is higher in inhibition at 50 µM: 10 to 30% for the first, 30 to 50% for the second.

Going from `COC(=O)c1cccc(N2CC(Oc3ccccc3N)C2)c1-n1cccc1` [Example 255, Methyl 3-(3-(2-aminophenoxy)azetidin-1-yl)-2-(1H-pyrrol-1-yl)benzoate] to `O=C(O)c1cccc(N2CC(Oc3cccc(CO)c3)C2)c1-n1cccc1` [Example 298, 3-(3-(3-(hydroxymethyl)phenoxy)azetidin-1-yl)-2-(1H-pyrrol-1-yl)benzoic acid], the inhibition at 50 µM falls from greater than 50% to less than 10%.

`COC(=O)c1cccc(N2CC(Oc3ccc(CO)cc3)C2)c1-c1ccc(Cl)cc1` [Compound 57] and `COC(=O)c1cccc(N2CC(Oc3ccc(CO)cc3)C2)c1-c1ccc2ccsc2c1` [Compound 43, Methyl 2-(benzo[b]thiophen-6-yl)-3-(3-(4-(hydroxymethyl)phenoxy)azetidin-1-yl)benzoate] fall in the same range of inhibition at 50 µM: 10 to 30% for the first, 10 to 30% for the second.

`COC(=O)c1cccc(N2CC(Oc3ccc(-c4csc(NS(C)(=O)=O)n4)cc3)C2)c1-n1cccc1` [Example 261, Methyl 3-(3-(4-(2-(methylsulfonamido)thiazol-4-yl)phenoxy)azetidin-1-yl)-2-(1H-pyrrol-1-yl)benzoate] and `O=C(O)c1cccc(N2CC(Oc3ccc(NS(=O)(=O)C4CC4)cc3)C2)c1-n1cccc1` [Example 127, 3-(3-(4-(cyclopropylsulfonamido)phenoxy)azetidin-1-yl)-2-(1H-pyrrol-1-yl)benzoic acid] cannot be ordered by inhibition at 50 µM: less than 10% for the first, less than 10% for the second.

`O=C(O)c1cccc(N2CC(Oc3ccc(CO)cc3)C2)c1-c1ccc2cc[nH]c2c1` [Compound 40, 3-(3-(4-(hydroxymethyl)phenoxy)azetidin-1-yl)-2-(1H-indol-6-yl)benzoic acid] and `Nc1c(C(=O)O)cccc1N1CC(Oc2ccc(CO)cc2)C1` [Compound 36, 2-amino-3-(3-(4-(hydroxymethyl)phenoxy)azetidin-1-yl)benzoic acid] cannot be ordered by inhibition at 50 µM: less than 10% for the first, less than 10% for the second.

First: CCNC(=S)OC1CN(c2cccc(C(=O)OC)c2-n2cccc2)C1 [Example 160, Methyl 3-(3-((ethylthiocarbamoyl)oxy)azetidin-1-yl)-2-(1H-pyrrol-1-yl)benzoate]
Second: CCNC(=S)OC1CN(c2cccc(C(=O)O)c2-n2cccc2)C1 [Example 161, 3-(3-((ethylthiocarbamoyl)oxy)azetidin-1-yl)-2-(1H-pyrrol-1-yl)benzoic acid]
The inhibition at 50 µM of the first is higher: 30 to 50% for the first, less than 10% for the second.

`O=C(O)c1cccc(N2CC(Oc3ccc(COc4cccc(C(F)(F)F)c4)cc3)C2)c1-n1cccc1` [Example 250, 3-(3-(4-((3-(trifluoromethyl)phenoxy)methyl)phenoxy)azetidin-1-yl)-2-(1H-pyrrol-1-yl)benzoic acid] and `N#CCCNC(=O)c1cccc(N2CC(Oc3ccc(CO)cc3)C2)c1-n1cccc1` [Example 368, N-(2-cyanoethyl)-3-(3-(4-(hydroxymethyl)phenoxy)azetidin-1-yl)-2-(1H-pyrrol-1-yl)benzamide] fall in the same range of inhibition at 50 µM: 10 to 30% for the first, 10 to 30% for the second.

Same assay, conditions: Homo sapiens, C6661, 72 h, read-out: C666-1 cell viability single concentration (50 μM) inhibition rate, Ratio* (Inh %)

With `Cn1ccc2cc(CN(C#Cc3cccc(C(=O)O)c3-n3cccc3)S(=O)(=O)c3csc4ccccc34)ccc21` [Example 335, Lithium 3-((N-((1-methyl-1H-indol-5-yl)methyl)benzo[b]thiophen-3-sulfonamido)ethynyl)-2-(1H-pyrrol-1-yl)benzoate] the inhibition at 50 µM was less than 10%.
